# Patent US9732119B2, “Immunomodulators” (BRISTOL-MYERS SQUIBB COMPANY, priority 2014, dated 2017)
# Positions of bridges follow the written chain, without caps; N, C: chain ends. Non-standard residues stand in square brackets, D forms with d. Residues, ends and D or L forms follow the SMILES beside them. Trp(1-CH2COOH) = N[C@@H](Cc1cn(CC(=O)O)c2ccccc12)C(=O)O; Phe(4-Cl) = N[C@@H](Cc1ccc(Cl)cc1)C(=O)O; Phe(4-F) = N[C@@H](Cc1ccc(F)cc1)C(=O)O; Hyp = O=C(O)[C@@H]1C[C@@H](O)CN1; NMeNle = CCCC[C@H](NC)C(=O)O; dOrn = NCCC[C@@H](N)C(=O)O; Pip = O=C(O)[C@@H]1CCCCN1; Dab = NCC[C@H](N)C(=O)O; Dap = NC[C@H](N)C(=O)O; Ava = NCCCCC(=O)O
# Molecular target: T1, PD-1-Ig binding to PD-L1-TVMV-His (PD-L1-His) (Homo sapiens, UniProt Q9NZQ7)
# T1 construct: hPDL1(19-239)-TVMV-His; made in house; host or cells: HEK293T cells
# T1 sequence (Q9NZQ7 with tags, fused parts or gaps): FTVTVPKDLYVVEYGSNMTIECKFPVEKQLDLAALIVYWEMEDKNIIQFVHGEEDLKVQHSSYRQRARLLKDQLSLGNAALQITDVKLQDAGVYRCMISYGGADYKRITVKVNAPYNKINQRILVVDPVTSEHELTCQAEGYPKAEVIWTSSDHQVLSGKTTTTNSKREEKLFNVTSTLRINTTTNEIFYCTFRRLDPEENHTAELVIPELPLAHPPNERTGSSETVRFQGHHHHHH
# Test: PD-1/PD-L1 Homogenous Time-Resolved Fluorescence (HTRF) binding assay
# Details: PD-1-Ig (20 nM) / PD-L1-His (10 nM)
# Procedure, shortened: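 HTRF competition: compound pre-incubated 15 min with PD-L1-His (10 nM final), then PD-1-Ig (20 nM final) added for 15 min in dPBS, 0.1% BSA, 0.05% Tween-20. Detection with Eu-cryptate anti-Ig (1 nM) and APC anti-His (20 nM) antibodies.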
IC50 (numeric values) [nM],IC50 (range classes) [nM],Compound
12,–,CCCC[C@H]1C(=O)N(C)[C@@H](CCCC)C(=O)N[C@@H](CC(C)C)C(=O)NCCC[C@@H](N)C(=O)N[C@@H](Cc2ccc(F)cc2)C(=O)N2CCCC[C@H]2C(=O)N[C@@H](CC(N)=O)C(=O)N2CCC[C@H]2C(=O)N[C@@H](CN)C(=O)N[C@@H](CCC(=O)O)C(=O)N2C[C@H](O)C[C@H]2C(=O)N[C@@H](Cc2c[nH]c3ccccc23)C(=O)N[C@@H](CCN)C(=O)N[C@@H](Cc2cn(CC(=O)O)c3ccccc23)C(=O)N1C [Example 10570] (H-[dOrn][Phe(4-F)][Pip]NP[Dap]E[Hyp]W[Dab][Trp(1-CH2COOH)][NMeNle][NMeNle]L; lactam 1-C)
–,1 to 9.9,CCCC[C@H]1C(=O)N(C)[C@@H](CCCC)C(=O)N[C@@H](CC(C)C)C(=O)NCCC[C@@H](N)C(=O)N[C@@H](Cc2ccc(Cl)cc2)C(=O)N2CCCC[C@H]2C(=O)N[C@@H](CC(N)=O)C(=O)N2CCC[C@H]2C(=O)N[C@@H](CN)C(=O)N[C@@H](CCC(=O)O)C(=O)N2C[C@H](O)C[C@H]2C(=O)N[C@@H](Cc2c[nH]c3ccccc23)C(=O)N[C@@H](CCN)C(=O)N[C@@H](Cc2cn(CC(=O)O)c3ccccc23)C(=O)N1C [Example 10571] (H-[dOrn][Phe(4-Cl)][Pip]NP[Dap]E[Hyp]W[Dab][Trp(1-CH2COOH)][NMeNle][NMeNle]L; lactam 1-C)
–,1 to 9.9,CCCC[C@H]1C(=O)N(C)[C@@H](CCCC)C(=O)N[C@@H](CC(C)C)C(=O)NCCCCC(=O)N[C@@H](Cc2ccc(OC)cc2)C(=O)N2CCCC[C@H]2C(=O)N[C@@H](CC(=O)O)C(=O)N2CCC[C@H]2C(=O)N[C@@H](CN)C(=O)N[C@@H](CC(C)C)C(=O)N2C[C@H](O)C[C@H]2C(=O)N[C@@H](Cc2c[nH]c3ccccc23)C(=O)N[C@@H](CCN)C(=O)N[C@@H](Cc2cn(CC(=O)O)c3ccccc23)C(=O)N1C [Example 10572] (cyclo([Ava]Y(Me)[Pip]DP[Dap]L[Hyp]W[Dab][Trp(1-CH2COOH)][NMeNle][NMeNle]L))
